Experimental findings from patent publication US20250268894A1, “MACROCYCLE COMPOUNDS FOR THE TREATMENT OF CANCER” (Hoffmann-La Roche Inc., priority 2022, published 2025) are described below.

For test [1], the system named is NCI-H358 cells (KRAS G12C). Description: Cell viability assay (Cell Counting Kit-8), KRAS G12C. Type of test: cell-based. To be noted: Homo sapiens, NCI-H358, 72 hrs. How it is done: (§1) The purpose of this cellular assay was to determine the effects of test compounds on the proliferation of human cancer cell lines NCI-H358 (ATCC-CRL5807) cells, AGS (ATCC-CRL-1739) cells, SW620 (ATCC-CCL-227) over a 3-day treatment period by quantifying the amount of NADPH present at endpoint using Cell Counting Kit-8.
(§2) Cells were seeded at 5,000 cells/well (NCI-H358), 2,000 cells/well (AGS)2,000 cells/well (SW620) in 96-well assay plates (Corning-3699) and incubated overnight. On the day of the assay, diluted compounds were then added in a final concentration of 0.5% DMSO. After 72 hrs incubation, a tenth of the volume of cell counting kit 8 (Dnjindo-CK04) was added into each well. Read the signal (OD450 minus OD650) using EnVision after 2 hrs incubation. IC50 was determined by fitting a 4-parameter sigmoidal concentration response model.
For orientation: Tetrazolium assays rely on reduction of a dye to a coloured formazan, in cell work by metabolically active cells.

For test [2], the system named is phosphorylation of ERK, KRAS G12V in SW620 cells. Put plainly: pERK inhibition assay, KRAS G12V in SW620. The format is cell-based, human. How it is done:
(§3) This assay is to measure the ability of test compounds in inhibiting the phosphorylation of ERK, the downstream signaling of KRAS G12C in NCI-H358 cells, KRAS G12D in AGS cells, and KRAS G12V in SW620. NCI-H358 (ATCC-CRL5807) cells, AGS (ATCC-CRL-1739) cells, SW620 (ATCC-CCL-227) cells were all grown and maintained using RPMI-1640 medium (Thermo Fisher Scientific) with 10% fetal bovine serum and 1% penicillin/streptomycin. On the day prior to compound addition, cells were plated in tissue culture-treated 96 well plates (Corning-3699) at a density of 30,000 cell/well, 20,000 cell/well, 30,000 cell/well for NCI-H358, AGS and SW620 respectively, and allowed for attachment overnight. Diluted compounds were then added in a final concentration of 0.5% DMSO. After 4 hours of incubation, the medium was removed, 100 μL of 4% formaldehyde was added, and the assay plates were incubated at room temperature for 20 minutes. The plates were then washed once with phosphate buffered saline (PBS), and permeabilized with 100 μL of chilled methanol for 10 minutes. Non-specific antibody binding to the plates was blocked using 50 μL 1X BSA blocking buffer (Thermo-37520, 10-fold dilution by Phosphate-Buffered Saline Tween (PBST) for at least 1 hour at room temperature.
(§4) The amount of phosphor-ERK was determined using an antibody specific for phosphorylated form of ERK. Primary antibody (PERK, CST-4370, Cell Signaling Technology) was diluted 1:300 in blocking buffer, with 50 μL aliquoted to each well, and incubated overnight at 4° C. Cells was washed five times for 5 minutes with PBST. Secondary antibody (HRP-linked anti-rabbit IgG, CST-7074, Cell Signaling Technology) was diluted 1:1000 in blocking buffer, and 50 μL was added to each well and incubated 1-2 hrs at room temperature. Cells was washed […] for 5 minutes with PBST, 100 μL TMB ELISA substrate (abcam-ab171523) were added and gently shake for 20 minutes. 50 μL stop solution (abcam-ab171529) were added, and then read the signal (OD450) by EnVision.
(§5) IC50 was determined by fitting a 4-parameter sigmoidal concentration response model.

The subject of another test is SW620 cells (KRAS G12V). Put plainly: Cell viability assay (Cell Counting Kit-8), KRAS G12V. Type of test: cell-based. Conditions: Homo sapiens, SW-620, SW620, 72 hrs. The method, then: as §1, §2
The subject of test [3] is phosphorylation of ERK, KRAS G12C in NCI-H358 cells. Put plainly: pERK inhibition assay, KRAS G12C in NCI-H358 cells. Type of test: cell-based, human. Conditions: NCI-H358, 4 hours. The method, then:
as §3, §4, §5

The subject of test [4] is phosphorylation of ERK, KRAS G12D in AGS cells. Description: pERK inhibition assay, KRAS G12D in AGS cells. The format is cell-based, human. To be noted: 4 hours. How it is done:
as §3, §4, §5

For a further test, the system named is AGS cells (KRAS G12D). Put plainly: Cell viability assay (Cell Counting Kit-8), KRAS G12D. The format is cell-based. Conditions: Homo sapiens, 72 hrs. How it is done: as §1, §2
Setting [5] is: Homo sapiens, SW-620, SW620, 4 hours.

pIC50: −log10 of the molar value.

The term pIC50 denotes −log10 of the IC50, conventionally taken in molar units.

In the case of `CO[C@@H](C)c1ncc(N2CCN(C)CC2)cc1-c1c2c3c(F)c(ccc3n1CC(F)(F)F)-c1csc(n1)C[C@H](NC(=O)[C@H](C(C)C)N(C)C(=O)N1CC(N(C)C)C1)C(=O)N1CCC[C@H](N1)C(=O)OCC(C)(C)C2` (atropisomer, axis not shown; (M)) [Example 2, 3-(dimethylamino)-N-[(1S)-1-[[(7S,13S)-25-fluoro-(20M)-20-[2-[(1S)-1-methoxyethyl]-5-(4-methylpiperazin-1-yl)-3-pyridyl]-17,17-dimethyl-8,14-dioxo-21-(2,2,2-trifluoroethyl)-15-oxa-4-thia-9,21,27,28-tetrazapentacyclo[17.5.2.1^2,5.1^9,13.0^22,26]octacosa-1(25),2,5 (28),19,22 (26),23-hexaen-7-yl]carbamoyl]-2-methyl-propyl]-N-methyl-azetidine-1-carboxamide], the negative-log IC50 (pIC50) in test [1] is 8.40; in test [2] (setting [5]), 8.40; in the test on SW620 cells (KRAS G12V) it was 8.52; in test [3] (Homo sapiens), 9.00; in test [4] (Homo sapiens), 8.30; in the test on AGS cells (KRAS G12D) it was 7.80.

Take `CO[C@@H](C)c1ncc(N2CCN(C)CC2)cc1-c1c2c3cc(ccc3n1CC(F)(F)F)-c1csc(n1)C[C@H](NC(=O)[C@H](C(C)C)N(C)C(=O)N1CCOCC1)C(=O)N1CCC[C@H](N1)C(=O)OCC(C)(C)C2` (atropisomer, axis not shown; (M)) [Example 3, N-[(1S)-1-[[(7S,13S)-24-fluoro-(20M)-20-[2-[(1S)-1-methoxyethyl]-5-(4-methylpiperazin-1-yl)-3-pyridyl]-17,17-dimethyl-8,14-dioxo-21-(2,2,2-trifluoroethyl)-15-oxa-4-thia-9,21,27,28-tetrazapentacyclo[17.5.2.1^2,5.1^9,13.0^22,26]octacosa-1 (25),2,5 (28),19,22 (26),23-hexaen-7-yl]carbamoyl]-2-methyl-propyl]-N-methyl-morpholine-4-carboxamide]: the pIC50 in test [1] is 9.00; in test [2] (setting [5]), 9.00; in the test with SW620 cells (KRAS G12V), 9.00; in test [3] (Homo sapiens), 9.00; in test [4] (Homo sapiens), 9.00; in the test with AGS cells (KRAS G12D) it was 7.82.

`CO[C@@H](C)c1ncc(N2CCOCC2)cc1-c1c2c3cc(c(F)cc3n1CC(F)(F)F)-c1csc(n1)C[C@H](NC(=O)[C@H](C(C)C)N(C)C(=O)N1CC(N(C)C)C1)C(=O)N1CCC[C@H](N1)C(=O)OCC(C)(C)C2` (atropisomer, axis not shown; (M)) [Example 4, 3-(dimethylamino)-N-[(1S)-1-[[(7S,13S)-24-fluoro-(20M)-20-[2-[(1S)-1-methoxyethyl]-5-morpholino-3-pyridyl]-17,17-dimethyl-8,14-dioxo-21-(2,2,2-trifluoroethyl)-15-oxa-4-thia-9,21,27,28-tetrazapentacyclo[17.5.2.1^2,5.1^9,13.0^22,26]octacosa-1 (25),2,5 (28),19,22 (26),23-hexaen-7-yl]carbamoyl]-2-methyl-propyl]-N-methyl-azetidine-1-carboxamide]: the pIC50 in test [1] is 8.52; in test [2] (setting [5]) it was 9.00; with SW620 cells (KRAS G12V), 9.00; in test [3] (Homo sapiens) it was 9.00; in test [4] (Homo sapiens), 8.52; in the test on AGS cells (KRAS G12D), 7.77.

Consider `CCn1c(-c2cc(N3CCOCC3)cnc2[C@H](C)OC)c2c3cc(c(F)cc31)-c1csc(n1)C[C@H](NC(=O)[C@H](C(C)C)N1CCN(C)C1=O)C(=O)N1CCC[C@H](N1)C(=O)OCC(C)(C)C2` (atropisomer, axis not shown; (M)) [Example 8, (2S)-N-[(7S,13S)-21-ethyl-24-fluoro-(20M)-20-[2-[(1S)-1-methoxyethyl]-5-morpholino-3-pyridyl]-17,17-dimethyl-8,14-dioxo-15-oxa-4-thia-9,21,27,28-tetrazapentacyclo[17.5.2.1^2,5.1^9,13.0^22,26]octacosa-1 (25),2,5 (28),19,22 (26),23-hexaen-7-yl]-3-methyl-2-(3-methyl-2-oxo-imidazolidin-1-yl) butanamide], for which the pIC50 in test [1] was 7.92; in test [2] (setting [5]), 8.30; in the test on SW620 cells (KRAS G12V), 8.15; in test [3] (Homo sapiens) it was 7.62; in test [4] (Homo sapiens), 7.62; in the test on AGS cells (KRAS G12D), 7.24.

Turning to `COC(C)c1ncc(N2CCN(CC(F)(F)F)CC2)cc1-c1c2c3cc(c(F)cc3n1CC(F)(F)F)-c1csc(n1)CC(NC(=O)C(C(C)C)N(C)C(=O)N1CCN(C)CC1)C(=O)N1CCCC(N1)C(=O)OCC(C)(C)C2` [Example 18, N-[(1S)-1-[[(7S,13S)-24-fluoro-(20M)-20-[2-[(1S)-1-methoxyethyl]-5-[4-(2,2,2-trifluoroethyl)piperazin-1-yl]-3-pyridyl]-17,17-dimethyl-8,14-dioxo-21-(2,2,2-trifluoroethyl)-15-oxa-4-thia-9,21,27,28-tetrazapentacyclo[17.5.2.1^2,5.1^9,13.0^22,26]octacosa-1 (25),2,5 (28),19,22 (26),23-hexaen-7-yl]carbamoyl]-2-methyl-propyl]-N,4-dimethyl-piperazine-1-carboxamide], the pIC50 was 8.15 in test [2] (SW620, 4 hours); 7.64 in test [3]; 7.92 in test [4].

On to `COC(C)c1ncc(N2CCN(CC(F)(F)F)CC2)cc1-c1c2c3cc(c(F)cc3n1CC(F)(F)F)-c1csc(n1)CC(NC(=O)C(C(C)C)N(C)C(=O)N1CCN(CC(F)(F)F)CC1)C(=O)N1CCCC(N1)C(=O)OCC(C)(C)C2` [Example 19, N-[(1S)-1-[[(7S,13S)-24-fluoro-(20M)-20-[2-[(1S)-1-methoxyethyl]-5-[4-(2,2,2-trifluoroethyl)piperazin-1-yl]-3-pyridyl]-17,17-dimethyl-8,14-dioxo-21-(2,2,2-trifluoroethyl)-15-oxa-4-thia-9,21,27,28-tetrazapentacyclo[17.5.2.1^2,5.1^9,13.0^22,26]octacosa-1 (25),2,5 (28),19,22 (26),23-hexaen-7-yl]carbamoyl]-2-methyl-propyl]-N-methyl-4-(2,2,2-trifluoroethyl) piperazine-1-carboxamide], for which the pIC50 in test [2] (SW620, 4 hours) was 7.80; in test [3], 7.18; in test [4], 7.27.
